The assay has as its target mGluR2-mGluR2 dimer (Rattus norvegicus, UniProt P31421). To be noted: for change in TRF520 signal in the presence of the compound: delay 50 μs, integration time 450 μs, BG-Lumi4-Tb/BC-fluorescein, dose-dependent; for maximum variation of TRF520 signal: dose-response up to 100 μM DCG-IV / 316 μM glutamate.

This is an account of results in patent US8697380B2, “Method for detecting compounds modulating dimers of VFT domain membrane proteins” (CIS Bio International, priority 2009, dated 2014).

mGluR2-mGluR2 dimer, sequence (P31421 23-872): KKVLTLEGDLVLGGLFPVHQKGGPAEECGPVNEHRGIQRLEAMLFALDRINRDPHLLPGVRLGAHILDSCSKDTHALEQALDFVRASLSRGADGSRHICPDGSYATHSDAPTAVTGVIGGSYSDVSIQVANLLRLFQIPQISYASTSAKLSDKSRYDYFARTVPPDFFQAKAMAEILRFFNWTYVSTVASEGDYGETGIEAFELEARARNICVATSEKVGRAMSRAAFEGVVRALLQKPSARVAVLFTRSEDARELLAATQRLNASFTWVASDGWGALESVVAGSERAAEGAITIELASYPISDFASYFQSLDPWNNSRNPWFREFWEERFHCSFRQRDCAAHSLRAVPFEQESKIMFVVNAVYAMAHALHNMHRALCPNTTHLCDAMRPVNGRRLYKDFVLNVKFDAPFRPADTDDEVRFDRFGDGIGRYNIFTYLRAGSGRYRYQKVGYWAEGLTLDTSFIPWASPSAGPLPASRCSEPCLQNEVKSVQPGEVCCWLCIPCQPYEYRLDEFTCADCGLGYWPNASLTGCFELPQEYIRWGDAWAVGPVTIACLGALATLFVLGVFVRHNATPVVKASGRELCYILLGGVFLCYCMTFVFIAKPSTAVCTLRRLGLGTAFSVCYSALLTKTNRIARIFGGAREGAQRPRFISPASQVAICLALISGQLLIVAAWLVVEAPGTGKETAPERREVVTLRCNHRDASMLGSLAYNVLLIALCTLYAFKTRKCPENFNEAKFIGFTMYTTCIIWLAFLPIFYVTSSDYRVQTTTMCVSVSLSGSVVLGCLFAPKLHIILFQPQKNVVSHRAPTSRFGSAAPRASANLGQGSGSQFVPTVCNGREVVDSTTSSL
mGluR2-mGluR2 dimer, sequence (P31421 23-872): as above

As to `COc1ccccc1Oc1ccc(N(Cc2cccnc2)S(=O)(=O)CC(F)(F)F)cc1` [4-MPPTS], under “4-MPPTS 10 μM, glutamate 1-1000 μM”, the “TRF520 signal for a given glutamate concentration, in the presence versus absence of the modulator” value is given as “greater decrease in signal”.

Consider `N[C@@H](CCC(=O)O)C(=O)O` [glutamate, L-glutamic acid], for which the “change in TRF520 signal in the presence of the compound” value was “decrease in TRF520” and the “maximum variation of TRF520 signal” value is 50%. The “variation in TRF520” value (glutamate 100 μM, in the absence of the antagonist LY341495) came out at 50%.

For the compound `N[C@H](C(=O)O)C1[C@@H](C(=O)O)[C@@H]1C(=O)O` (stereo partly shown) [DCG-IV], the “change in TRF520 signal in the presence of the compound” value was “inhibiting the TRF520 signal in a dose-dependent manner” and the “maximum variation of TRF520 signal” value worked out at 30%. The EC50 (read-out: concentration necessary for obtaining a variation equal to half the maximum variation (close to the pharmacological EC50), TRF520 signal, printed value is given as the pharmacological EC50) is around 0.4 µM.
